Experimental data: US11040106B2, “Conjugates of kinase inhibitors and cyanine dyes” (priority 2018, dated 2021)
Entries after “also recorded” stand apart in the source; their conditions may differ.

How the values were obtained:
HEPG2 cells = assay: Cytotoxicity (cell viability, MTT assay) on HEPG2 cells; format: cell-based; settings: HEPG2 cells (liver cancer)
Procedure: Approximately 5000 HEPG2 cells/well were seeded on 96 well plate containing 10% fetal bovine serum. Cells were allowed to adhere overnight before test compounds were added. Stock solutions of 1a (0.02 M in DMSO) were diluted with protein-free medium (PFHM-II) to make desired final concentrations varying from 0.01 to 80 μM. The cells were incubated with the desired concentration for 48 h. The cell viabilities were calculated using MTT assay. Briefly, 20 μL of 3-(4,5-dimethylthiazol-2-yl)-2,5-diphenyltetrazolium bromide MTT (5 mg/mL, in Hank's balanced salt solution) were added and the cells were incubated for an additional 3.5 h. The medium was then removed, and […] of DMSO was added to dissolve the formazan crystal formed. The optical density of each well (at 570 nm) was measured with a BioTek Synergy 4 Microplate Reader. The viability of each cell line in response to the treatment with tested compounds was calculated as: % dead cells=100−(OD treated/OD control)×100.

U87-MG cells = assay: Cytotoxicity (cell viability) on U87-MG cells; format: cell-based
K562 leukemia cells = assay: Cytotoxicity (cell viability) on K562 cells; format: cell-based
[1] = system: MDA-MB-231 “triple negative” breast cancer cells; assay: Cytotoxicity (cell viability) on MDA-MB-231 cells; format: cell-based; settings: MDA-MB-231 (breast cancer cells)
[2] = system: U87-MG (Glioblastoma) cells as compared to HUVEC (normal cells); assay: Uptake by U87-MG cells as compared to HUVEC; format: cell-based, human
[3] = system: U87-MG (Glioblastoma) cells; assay: Light and dark toxicity on U87-MG cells; format: cell-based, human
HUVEC = assay: Light and dark toxicity on HUVEC; format: cell-based; settings: 1 h incubation, 10 minutes irradiation
Source text: HUVEC cells are non-carcinogentic, “normal” […] cells.

Row | SMILES | cytotoxicity compared with parent dye, parent kinase inhibitor (and their mixture) (HEPG2 cells) | cytotoxicity compared with parent dye, parent kinase inhibitor (and their mixture) (U87-MG cells; U87-MG cells (glioblastoma)) | cytotoxicity compared with ICG-COOH conjugate (U87-MG cells; U87-MG, 24 and 48 h) | cytotoxicity compared with parent dye, parent kinase inhibitor (and their mixture) (K562 leukemia cells) | cytotoxicity compared with parent dye, parent kinase inhibitor (and their mixture) [1] | uptake by U87-MG cells compared to HUVEC [2] | light versus dark toxicity ([3]; 1, 2, 4 and 6 h incubation, 10 mins irradiation) | light versus dark toxicity ([3]; 1 h incubation, irradiation 5, 10, 15, 20 minutes) | phototoxic effect on normal cells (HUVEC)
1 | CC(=O)c1c(C)c2cnc(Nc3ccc(N4CCN(C(=O)CCCCCN5/C(=C/C=C6\CCCC(/C=C/C7=[N+](CCCCCC(=O)[O-])c8ccccc8C7(C)C)=C6Cl)C(C)(C)c6ccccc65)CC4)cn3)nc2n(C2CCCC2)c1=O [Compound 1b] | more found to be toxic than individual 1, b or a combination of 1+b; also recorded: significantly more toxic than the parent dye, the parent kinase inhibitor, or a mixture of the dye and kinase inhibitor | more found to be toxic than individual 1, b or a combination of 1+b; also recorded: significantly more toxic than the parent dye, the parent kinase inhibitor, or a mixture of the dye and kinase inhibitor | more toxic than ICG-COOH-b | more found to be toxic than individual 1, b or a combination of 1+b; also recorded: significantly more toxic than the parent dye, the parent kinase inhibitor, or a mixture of the dye and kinase inhibitor | more toxic than 1 and b; also recorded: more toxic than b or 1 | localizes more in U87-MG cells than HUVEC cells | – | – | –
2 | CC1(C)C(=CC=C2CCCC(C=CC3=[N+](CCCCCC(=O)O)c4ccc(I)cc4C3(C)C)=C2Cl)N(CCCCCC(=O)O)c2ccc(I)cc21 [Compound 2aa] | – | – | – | – | – | the cancer cells uptake more of the compound | Light toxicity was more than light in every case | kills the cells more in light than in dark | does not significantly kill normal cells
